Assay results published in patent US20230348426A1, “OXOPYRROLIDINE FPR2 AGONISTS” (Bristol-Myers Squibb Company, priority 2020, published 2023).

What was measured:
human FPR2 = human FPR2 (Homo sapiens (Human), UniProt P25090); test: FPR2 cyclic adenosine monophosphate (cAMP) assay; type: cell-based; details: CHO cells overexpressing human FPR2; forskolin 5 µM; inhibition of cAMP production; read-out: hFPR2 cAMP2 EC50
Summary of the method: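 CHO cells overexpressing human FPR2 (2,000/well) incubated 30 min at room temperature with compound (0.020 nM–100 µM, 1% DMSO), 5 µM forskolin and 200 µM IBMX.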

human FPR1 = human FPR1 (Homo sapiens (Human), UniProt P21462); test: FPR1 cyclic adenosine monophosphate (cAMP) assay; type: cell-based; details: CHO cells overexpressing human FPR1; forskolin 10 µM; inhibition of cAMP production; read-out: hFPR1 cAMP EC50
Summary of the method: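 CHO cells overexpressing human FPR1 (4,000 cells/well) stimulated with 10 µM forskolin plus 200 µM IBMX in the presence of compound (0.020 nM–100 µM, 1% DMSO), 30 min at room temperature. Intracellular cAMP measured by HTRF. Inhibition of cAMP production fitted to a 4-parameter logistic equation.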

human FPR2, sequence (P25090 whole entry): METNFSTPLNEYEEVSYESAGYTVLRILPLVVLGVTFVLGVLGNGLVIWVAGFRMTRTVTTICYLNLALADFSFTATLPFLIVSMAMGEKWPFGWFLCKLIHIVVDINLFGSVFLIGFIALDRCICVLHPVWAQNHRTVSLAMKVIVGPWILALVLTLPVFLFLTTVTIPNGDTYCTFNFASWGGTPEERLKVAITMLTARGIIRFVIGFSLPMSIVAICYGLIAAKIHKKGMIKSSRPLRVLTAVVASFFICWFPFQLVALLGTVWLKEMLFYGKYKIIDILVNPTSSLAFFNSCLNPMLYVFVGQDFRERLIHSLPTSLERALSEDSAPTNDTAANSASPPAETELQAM
human FPR1, sequence (P21462 whole entry): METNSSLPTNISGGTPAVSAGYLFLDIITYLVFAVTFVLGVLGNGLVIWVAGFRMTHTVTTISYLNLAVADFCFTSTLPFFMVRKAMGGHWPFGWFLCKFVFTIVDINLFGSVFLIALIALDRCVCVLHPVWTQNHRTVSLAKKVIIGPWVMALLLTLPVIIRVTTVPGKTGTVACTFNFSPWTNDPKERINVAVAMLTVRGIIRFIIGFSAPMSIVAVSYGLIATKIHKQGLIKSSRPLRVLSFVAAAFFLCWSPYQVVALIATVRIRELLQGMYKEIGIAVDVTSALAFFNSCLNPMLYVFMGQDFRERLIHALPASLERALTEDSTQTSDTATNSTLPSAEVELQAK

EC50 (human FPR2) | EC50 (human FPR1) | Structure (SMILES)
9.1 nM | 18 nM | COc1cc(F)c([C@@H]2CN(c3c(C)ccn(CC4CCO4)c3=O)C(=O)[C@H]2NC(=O)c2ccc(OC(F)F)cc2)c(F)c1 (stereo partly shown) [Example 617]
1 nM | 9.5 nM | COc1cc(F)c([C@@H]2CN(c3c(C)ccn(CC4CCO4)c3=O)C(=O)[C@H]2NC(=O)c2ccc(Cl)cc2)c(F)c1 (stereo partly shown) [Example 618]
9.4 nM | 64 nM | COc1cc(F)c([C@@H]2CN(c3c(C)ccn(CC4CNC(=O)O4)c3=O)C(=O)[C@H]2NC(=O)c2ccc(OC(F)F)cc2)c(F)c1 (stereo partly shown) [Example 619]
7.4 nM | 6.5 nM | COc1ccc([C@@H]2CN(c3ccnn(CC(F)F)c3=O)C(=O)[C@H]2NC(=O)c2ccc(OC(F)F)cc2)c(F)c1 [Example 620]
90 nM | 64 nM | COc1cc(F)c([C@@H]2CN(c3c(C)ccn([C@H]4COC[C@@H]4O)c3=O)C(=O)[C@H]2NC(=O)c2ccc(Cl)cc2)c(F)c1 [Example 621]
8.4 nM | 2.2 nM | COc1cc(F)c([C@@H]2CN(c3c(C)ccn([C@H]4COC[C@@H]4O)c3=O)C(=O)[C@H]2NC(=O)c2ccc(OC(F)(F)F)cc2)c(F)c1 [Example 622]
11.5 nM | 160 nM | COc1cc(F)c([C@@H]2CN(c3c(C)ccn([C@H]4COC[C@@H]4O)c3=O)C(=O)[C@H]2NC(=O)c2ccc(Cl)cc2)c(F)c1 [Example 623]
1.5 nM | 9.3 nM | COc1cc(F)c([C@@H]2CN(c3c(C)ccn([C@H]4COC[C@@H]4O)c3=O)C(=O)[C@H]2NC(=O)c2ccc(OC(F)F)cc2)c(F)c1 [Example 624]
0.7 nM | 13 nM | COc1cc(F)c([C@@H]2CN(c3c(C)ccn(C4CCS(=O)(=O)CC4)c3=O)C(=O)[C@H]2NC(=O)c2ccc(OC(F)F)cc2)c(F)c1 [Example 626]
8.6 nM | 2 nM | COc1cc(F)c([C@@H]2CN(c3c(C)ccn(C4CCS(=O)(=O)CC4)c3=O)C(=O)[C@H]2NC(=O)c2ccc(OC(F)(F)F)cc2)c(F)c1 [Example 627]
4.7 nM | 59 nM | COc1cc(F)c([C@@H]2CN(c3nn(C4COC4)c(=O)cc3C)C(=O)[C@H]2NC(=O)c2ccc(OC(F)F)cc2)c(F)c1 [Example 628]
9.9 nM | 670 nM | COc1cc(F)c([C@@H]2CN(c3cn(C)nc3OC)C(=O)[C@H]2NC(=O)c2ccc(Cl)cc2)c(F)c1 [Example 629]
5.2 nM | 1100 nM | COc1cc(F)c([C@@H]2CN(c3cn(C)nc3OC)C(=O)[C@H]2NC(=O)c2ccc(OC(F)F)cc2)c(F)c1 [Example 630]
10 nM | 160 nM | COc1cc(F)c([C@@H]2CN(c3cn(C)nc3OC)C(=O)[C@H]2NC(=O)c2ccc(OC(F)(F)F)cc2)c(F)c1 [Example 631]
0.9 nM | 3.7 nM | COc1ccc([C@@H]2CN(c3c(C)ccn(CC(F)F)c3=O)C(=O)[C@H]2NC(=O)c2ccc(OC(F)F)cc2)cc1 [Example 632]
1.4 nM | 4.3 nM | COCCn1ccc(C)c(N2C[C@@H](c3c(F)cc(OC)cc3F)[C@H](NC(=O)c3ccc(Cl)cc3)C2=O)c1=O [Example 633]
2 nM | 2.3 nM | COc1cc(F)c([C@@H]2CN(c3c(C)ccn(CC(O)C(F)(F)F)c3=O)C(=O)[C@H]2NC(=O)c2ccc(OC(F)F)cc2)c(F)c1 (stereo partly shown) [Example 634]
3.7 nM | 6.3 nM | COCCn1ccc(C)c(N2C[C@@H](c3ccc(OC)cc3F)[C@H](NC(=O)c3ccc(Cl)cc3)C2=O)c1=O [Example 635]
1.6 nM | 3.2 nM | COc1ccc([C@@H]2CN(c3c(C)ccn(CCO)c3=O)C(=O)[C@H]2NC(=O)c2ccc(OC(F)(F)F)cc2)c(F)c1 [Example 636]
6.6 nM | 5.7 nM | COc1cc(F)c([C@@H]2CN(c3c(C)ccn(C4COC4)c3=O)C(=O)[C@H]2NC(=O)c2ccc(OC(F)(F)F)cc2)c(F)c1 [Example 637]
14 nM | 290 nM | CCn1cc(C)c(C)c(N2C[C@@H](c3c(F)cc(OC)cc3F)C(NC(=O)c3ccc(OC(F)(F)F)cc3)C2=O)c1=O (stereo partly shown) [Example 638]
5.8 nM | 57 nM | CCn1cc(C)c(C)c(N2C[C@@H](c3c(F)cc(OC)cc3F)C(NC(=O)c3ccc(OC(F)(F)F)cc3)C2=O)c1=O (stereo partly shown) [Example 639]
2.2 nM | 1200 nM | COCCn1cc(C)c(C)c(N2C[C@@H](c3c(F)cc(OC)cc3F)C(NC(=O)c3ccc(Cl)cc3)C2=O)c1=O (stereo partly shown) [Example 640]
2.8 nM | 1000 nM | COCCn1cc(C)c(C)c(N2C[C@@H](c3c(F)cc(OC)cc3F)C(NC(=O)c3ccc(Cl)cc3)C2=O)c1=O (stereo partly shown) [Example 641]
15 nM | 570 nM | CCn1cc(C)c(C)c(N2C[C@@H](c3c(F)cc(OC)cc3F)[C@H](NC(=O)c3ccc(OC(F)F)cc3)C2=O)c1=O [Example 642]

EC50 (human FPR2) | EC50 (human FPR1) | Structure (SMILES)
2.6 nM | 75 nM | COc1ccc([C@@H]2CN(c3cccn(CC(O)C(F)(F)F)c3=O)C(=O)[C@H]2NC(=O)c2ccc(OC(F)F)cc2)cc1 (stereo partly shown) [Example 643]
2.1 nM | 64 nM | COc1ccc([C@@H]2CN(c3cccn(CC(O)C(F)(F)F)c3=O)C(=O)[C@H]2NC(=O)c2ccc(OC(F)F)cc2)cc1 (stereo partly shown) [Example 644]
2.8 nM | 190 nM | COc1ccc([C@@H]2CN(c3ccnn(CCC(F)(F)F)c3=O)C(=O)[C@H]2NC(=O)c2ccc(OC(F)F)cc2)cc1 [Example 645]
16 nM | 670 nM | COc1cc(F)c([C@@H]2CN(c3c4c(cn(CCO)c3=O)CCCC4)C(=O)[C@H]2NC(=O)c2ccc(OC(F)F)cc2)c(F)c1 [Example 646]
1.5 nM | 22 nM | CCn1ccc(N2C[C@@H](c3c(F)cc(OC)cc3F)[C@H](NC(=O)c3ccc(Cl)cc3)C2=O)n1 [Example 647]
0.7 nM | 4.1 nM | CCn1ccc(N2C[C@@H](c3c(F)cc(OC)cc3F)[C@H](NC(=O)c3ccc(OC(F)F)cc3)C2=O)n1 [Example 648]
1.3 nM | 7.8 nM | CCn1ccc(N2C[C@@H](c3c(F)cc(OC)cc3F)[C@H](NC(=O)c3ccc(OC(F)(F)F)cc3)C2=O)n1 [Example 649]
11 nM | 1700 nM | COCCn1ccnc1N1C[C@@H](c2c(F)cc(OC)cc2F)[C@H](NC(=O)c2ccc(Cl)cc2)C1=O [Example 650]
3.5 nM | 780 nM | COCCn1ccnc1N1C[C@@H](c2c(F)cc(OC)cc2F)[C@H](NC(=O)c2ccc(OC(F)F)cc2)C1=O [Example 651]
7.2 nM | 700 nM | COCCn1ccnc1N1C[C@@H](c2c(F)cc(OC)cc2F)[C@H](NC(=O)c2ccc(OC(F)(F)F)cc2)C1=O [Example 652]
3.3 nM | 12 nM | COc1cc(F)c([C@@H]2CN(c3c(C)ccn(CC(F)F)c3=O)C(=O)[C@H]2NC(=O)c2ccc(Cl)cc2)c(F)c1 [Example 653]
1 nM | 12 nM | COc1cc(F)c([C@@H]2CN(c3c(C)ccn(C4CCOC4)c3=O)C(=O)[C@H]2NC(=O)c2ccc(Cl)cc2)c(F)c1 (stereo partly shown) [Example 654]
3.8 nM | 1.2 nM | COc1cc(F)c([C@@H]2CN(c3c(C)ccn(C4CCOC4)c3=O)C(=O)[C@H]2NC(=O)c2ccc(OC(F)(F)F)cc2)c(F)c1 (stereo partly shown) [Example 655]
2.5 nM | 13 nM | COc1ccc([C@@H]2CN(c3cccn(CC(O)C(F)(F)F)c3=O)C(=O)[C@H]2NC(=O)c2ccc(OC(F)(F)F)cc2)cc1 (stereo partly shown) [Example 656]
2 nM | 45 nM | COc1ccc([C@@H]2CN(c3cccn(CC(O)C(F)(F)F)c3=O)C(=O)[C@H]2NC(=O)c2ccc(OC(F)(F)F)cc2)cc1 (stereo partly shown) [Example 657]
3.4 nM | 1.7 nM | COCCn1ncc(C)c(N2C[C@@H](c3c(F)cc(OC)cc3F)[C@H](NC(=O)c3ccc(OC(F)F)cc3)C2=O)c1=O [Example 658]
1 nM | 1.3 nM | COc1cc(F)c([C@@H]2CN(c3c(C)ccn(C(F)(F)CO)c3=O)C(=O)[C@H]2NC(=O)c2ccc(OC(F)(F)F)cc2)c(F)c1 [Example 659]
1.2 nM | 110 nM | COc1cc(F)c([C@@H]2CN(c3ccn(CC(F)F)n3)C(=O)[C@H]2NC(=O)c2ccc(OC(F)F)cc2)c(F)c1 [Example 661]
1.1 nM | 1700 nM | CCn1cc2c(c(N3C[C@@H](c4c(F)cc(OC)cc4F)[C@H](NC(=O)c4ccc(OC(F)F)cc4)C3=O)c1=O)CCCC2 [Example 663]
8.7 nM | 190 nM | CCn1cc2c(c(N3C[C@@H](c4c(F)cc(OC)cc4F)[C@@H](NC(=O)c4ccc(OC(F)F)cc4)C3=O)c1=O)CCCC2 [Example 664]
< 10 nM | 7.4 nM | COc1cc(F)c([C@@H]2CN(c3c(C)ccn(CC4CNC(=O)O4)c3=O)C(=O)[C@H]2NC(=O)c2ccc(OC(F)F)cc2)c(F)c1 (stereo partly shown) [Example 665]
63 nM | 7.7 nM | COc1cc(F)c([C@@H]2CN(c3ccc4n(c3=O)CCOC4=O)C(=O)[C@H]2NC(=O)c2ccc(OC(F)(F)F)cc2)c(F)c1 [Example 667]
8.8 nM | 210 nM | COc1cc(F)c([C@@H]2CN(c3ccc4n(c3=O)CCOC4=O)C(=O)[C@H]2NC(=O)c2ccc(OC(F)F)cc2)c(F)c1 [Example 668]
11 nM | 270 nM | COc1cc(F)c([C@@H]2CN(c3cccn(CC(O)CO)c3=O)C(=O)[C@H]2NC(=O)c2ccc(OC(F)(F)F)cc2)c(F)c1 (stereo partly shown) [Example 669]

Structure (SMILES) | EC50 (human FPR2) | EC50 (human FPR1)
COc1cc(F)c([C@@H]2CN(c3ccn(CC(F)F)n3)C(=O)[C@H]2NC(=O)c2ccc(OC(F)(F)F)cc2)c(F)c1 [Example 662] | 4 nM | 14 nM
